Measurements as given in patent publication US11214803B2, “Modulators of YAP1 expression” (Ionis Pharmaceuticals, Inc., priority 2019, dated 2022).
Marks after values point to notes of the source that are not given here. Strand notation (5' to 3'): a small letter for the sugar, then the base; units joined by * are phosphorothioate-linked, units joined directly phosphodiester-linked; [ ] holds rarer units or linkages, { } end groups; capitals alone tell only the bases. k = constrained ethyl (cEt); [5mC] = 5-methylcytosine; d = 2'-deoxy (DNA)

These substances were tested on Yap1 mRNA (assay: Antisense inhibition of human Yap1 in A-431 cells by cEt gapmers, single dose (Example 4, RTS4814)). Conditions: Table 14; A-431 cells, 5,000 cells per well, free uptake, 2,000 nM, approximately 48 hours; RTS4814; normalized to RIBOGREEN; Yap1 mRNA relative to untreated control; * = targets amplicon region of primer probe set.
Type: cell-based
Procedure: Modified oligonucleotides were designed to target a Yap1 nucleic acid and were tested for their effect on Yap1 mRNA level in vitro. The modified oligonucleotides were tested in a series of experiments that had similar culture conditions. Cultured A-431 cells at a density of 5,000 cells per well were treated using free uptake with 2,000 nM of modified oligonucleotide. After a treatment period of approximately 48 hours, RNA was isolated from the cells and Yap1 mRNA levels were measured by quantitative real-time RTPCR. Human primer probe set RTS4814 was used to measure mRNA levels. Yap1 mRNA levels were normalized to total RNA content, as measured by RIBOGREEN®. Results are presented in the tables below as percent control of the amount of Yap1 mRNA relative to untreated control cells (% UTC). The modified oligonucleotides with percent control values marked with an asterisk (*) target the amplicon region of the primer probe set. Additional assays may be used to measure the potency and efficacy of the modified oligonucleotides targeting the amplicon region.
The newly designed modified oligonucleotides in the Tables below were designed as 3-10-3 cEt gapmers. The gapmers are 16 nucleosides in length, wherein the central gap segment comprises of ten 2′-deoxynucleosides and is flanked by wing segments on the 5′ direction and the 3′ direction comprising three nucleosides each. Each nucleoside in the 5′ wing segment and each nucleoside in the 3′ wing segment has a cEt sugar modification. The internucleoside linkages throughout each gapmer are phosphorothioate (P═S) linkages. All cytosine residues throughout each gapmer are 5-methylcytosines.
“Start site” indicates the 5′-most nucleoside to which the gapmer is targeted in the human gene sequence. “Stop site” indicates the 3′-most nucleoside to which the gapmer is targeted human gene sequence. […] Activity of the modified oligonucleotide may be defined in a different experiment.
In the case of “1075232 (antisense kA*kT*kT*dT*dA*dT*d[5mC]*dA*dG*d[5mC]*d[5mC]*dA*dT*kT*kG*kT) [Compound 1075232]”, the “YAP1 (% UTC)” value is reported as 13 % UTC. “1075200 (antisense k[5mC]*kA*kT*dA*dT*dT*dA*dA*d[5mC]*dT*dA*dG*dA*kT*kG*kA) [Compound 1075200]” was tested, and the “YAP1 (% UTC)” value was 120 % UTC. “1076448 (k[5mC]*kT*kT*dA*dT*dA*dA*dT*dG*d[5mC]*dA*dA*dT*k[5mC]*k[5mC]*kT; antisense) [Compound 1076448]” was tested, and the “YAP1 (% UTC)” value was 2 % UTC.

Same assay, conditions: Table 15; A-431 cells, 5,000 cells per well, free uptake, 2,000 nM, approximately 48 hours; RTS4814; normalized to RIBOGREEN; Yap1 mRNA relative to untreated control; * = targets amplicon region of primer probe set
“1075425 (antisense kA*kT*kT*dA*dT*dT*dA*dA*dT*d[5mC]*d[5mC]*dT*dG*kT*k[5mC]*k[5mC]) [Compound 1075425]” was tested, and the “YAP1 (% UTC)” value was 26 % UTC. With “1074241 (antisense kG*kA*kT*dG*dT*d[5mC]*dT*dT*dT*dG*d[5mC]*d[5mC]*dA*kT*k[5mC]*kT) [Compound 1074241]” the “YAP1 (% UTC)” value was 72 % UTC. For “1075105 (antisense kA*kA*kT*dT*dA*dT*dA*dA*dG*dG*dT*d[5mC]*d[5mC]*kT*kA*k[5mC]) [Compound 1075105]”, the “YAP1 (% UTC)” value was 42 % UTC. For “1074593 (antisense kA*kG*kG*dA*dG*d[5mC]*dA*dA*dG*dT*d[5mC]*dT*dT*kG*kT*kA) [Compound 1074593]”, the “YAP1 (% UTC)” value was 6 % UTC. With “1075393 (k[5mC]*kT*kT*dA*dA*d[5mC]*d[5mC]*dT*dA*dT*dG*d[5mC]*d[5mC]*kA*kA*kA; antisense) [Compound 1075393]” the “YAP1 (% UTC)” value was 37 % UTC. With “1075169 (antisense kA*kA*kA*dA*d[5mC]*dG*dG*dA*dG*dT*dA*dA*dT*kG*k[5mC]*k[5mC]) [Compound 1075169]” the “YAP1 (% UTC)” value was 39 % UTC. With “1074145 (antisense kA*kA*kG*d[5mC]*dG*dG*d[5mC]*dG*dA*d[5mC]*dG*dG*d[5mC]*kT*kG*k[5mC]) [Compound 1074145]” the “YAP1 (% UTC)” value was 73 % UTC. For “1075809 (kT*kA*kG*d[5mC]*dA*dA*dT*dA*dG*dA*dG*dT*dA*kA*k[5mC]*k[5mC]; antisense) [Compound 1075809]”, the “YAP1 (% UTC)” value was 13 % UTC. For “1076129 (k[5mC]*kA*kT*dA*dA*dA*d[5mC]*d[5mC]*dT*dT*dA*dG*dT*k[5mC]*k[5mC]*kT; antisense) [Compound 1076129]”, the “YAP1 (% UTC)” value was 26 % UTC.

Same assay, conditions: Table 16; A-431 cells, 5,000 cells per well, free uptake, 2,000 nM, approximately 48 hours; RTS4814; normalized to RIBOGREEN; Yap1 mRNA relative to untreated control cells
With “1075810 (kG*kT*kA*dG*d[5mC]*dA*dA*dT*dA*dG*dA*dG*dT*kA*kA*k[5mC]; antisense) [Compound 1075810]” the “YAP1 (% UTC)” value was 7 % UTC. With “1074530 (k[5mC]*kT*kA*dA*dA*d[5mC]*dT*dA*d[5mC]*dT*dT*d[5mC]*dA*kA*kA*k[5mC]; antisense) [Compound 1074530]” the “YAP1 (% UTC)” value was 88 % UTC. In the case of “1074434 (antisense kA*k[5mC]*kT*dT*d[5mC]*dT*dA*dA*dG*dT*d[5mC]*dT*dG*kA*kG*kT) [Compound 1074434]”, the “YAP1 (% UTC)” value is reported as 51* % UTC. In the case of “1075618 (kT*kT*kT*dT*dA*dA*dG*dA*dA*d[5mC]*dG*dA*d[5mC]*kA*kT*kA; antisense) [Compound 1075618]”, the “YAP1 (% UTC)” value is reported as 69 % UTC. In the case of “1075266 (antisense kT*kA*kT*dT*dA*dG*dG*dA*d[5mC]*dA*dA*dA*dG*kT*kA*k[5mC]) [Compound 1075266]”, the “YAP1 (% UTC)” value is reported as 57 % UTC. “1075586 (kT*kA*kT*dT*dA*dG*d[5mC]*dA*d[5mC]*d[5mC]*dT*dG*dG*kG*kT*kA; antisense) [Compound 1075586]” was tested, and the “YAP1 (% UTC)” value was 64 % UTC. In the case of “1076546 (antisense k[5mC]*k[5mC]*k[5mC]*d[5mC]*dA*dA*d[5mC]*d[5mC]*dT*dG*dA*dG*dG*kA*kG*k[5mC]) [Compound 1076546]”, the “YAP1 (% UTC)” value is reported as 94 % UTC. In the case of “1074242 (antisense kA*kG*kA*dA*dG*dA*dT*dG*dT*d[5mC]*dT*dT*dT*kG*k[5mC]*k[5mC]) [Compound 1074242]”, the “YAP1 (% UTC)” value is reported as 56 % UTC. For “1076194 (kT*kT*kT*dA*dA*dT*dA*d[5mC]*dA*d[5mC]*dA*dG*dG*kT*kT*k[5mC]; antisense) [Compound 1076194]”, the “YAP1 (% UTC)” value was 22 % UTC. In the case of “1074786 (kA*kA*k[5mC]*d[5mC]*dA*dT*dA*dA*dG*dT*dA*dG*dA*kT*k[5mC]*kT; antisense) [Compound 1074786]”, the “YAP1 (% UTC)” value is reported as 28 % UTC. In the case of “1076418 (kT*kA*kT*dA*dA*dT*dA*dA*d[5mC]*d[5mC]*d[5mC]*dA*dT*kT*kG*kT; antisense) [Compound 1076418]”, the “YAP1 (% UTC)” value is reported as 63 % UTC.

Same assay, conditions: Table 17; A-431 cells, 5,000 cells per well, free uptake, 2,000 nM, approximately 48 hours; RTS4814; normalized to RIBOGREEN; Yap1 mRNA relative to untreated control cells
With “1074467 (k[5mC]*kA*k[5mC]*d[5mC]*dG*dA*d[5mC]*d[5mC]*d[5mC]*dT*dG*d[5mC]*d[5mC]*kA*kA*kA; antisense) [Compound 1074467]” the “YAP1 (% UTC)” value was 31 % UTC. For “1076419 (kA*kT*kA*dT*dA*dA*dT*dA*dA*d[5mC]*d[5mC]*d[5mC]*dA*kT*kT*kG; antisense) [Compound 1076419]”, the “YAP1 (% UTC)” value was 47 % UTC. “1074723 (antisense kG*kG*kT*dA*dA*dA*dG*dG*dA*dA*dG*dA*dT*k[5mC]*kT*k[5mC]) [Compound 1074723]” was tested, and the “YAP1 (% UTC)” value was 6 % UTC. With “1074275 (antisense k[5mC]*kA*kA*dG*dA*dG*dG*dT*dG*dG*dT*d[5mC]*dT*kT*kG*kT) [Compound 1074275]” the “YAP1 (% UTC)” value was 73 % UTC. With “1076515 (antisense k[5mC]*kT*kG*d[5mC]*dA*dA*dG*dA*dA*dT*dA*d[5mC]*dT*kT*kT*kA) [Compound 1076515]” the “YAP1 (% UTC)” value was 30 % UTC. With “1074915 (antisense kA*kG*kT*dT*dA*d[5mC]*dA*dT*d[5mC]*d[5mC]*d[5mC]*dG*dA*kG*kT*kG) [Compound 1074915]” the “YAP1 (% UTC)” value was 65 % UTC. For “1076259 (kA*kT*kT*dT*dA*dA*d[5mC]*dT*d[5mC]*d[5mC]*dT*dG*dA*kA*kG*kT; antisense) [Compound 1076259]”, the “YAP1 (% UTC)” value was 61 % UTC. For “1076195 (kA*kA*kT*dA*dA*d[5mC]*dA*dT*dG*dG*dT*dT*d[5mC]*kT*kG*kT; antisense) [Compound 1076195]”, the “YAP1 (% UTC)” value was 20 % UTC.

Same assay, conditions: Yap1 mRNA remaining as percent of untreated control; 3-10-3 cEt gapmers; A-431 cells; Table 36
In the case of “1075574 (antisense kA*kG*kT*d[5mC]*dA*dA*dG*dG*dA*dA*d[5mC]*d[5mC]*dT*kT*k[5mC]*kT) [compound 1075574]”, the “YAP1 (% UTC)” value is reported as 47 % UTC. For “1074390 (k[5mC]*kT*kG*d[5mC]*dA*dG*dA*d[5mC]*dT*dT*dG*dG*d[5mC]*kA*kT*k[5mC]; antisense) [compound 1074390]”, the “YAP1 (% UTC)” value was 64 % UTC. With “1075446 (antisense k[5mC]*kT*kA*dT*dA*dA*dA*dT*d[5mC]*d[5mC]*dT*d[5mC]*dA*kT*kG*kT) [compound 1075446]” the “YAP1 (% UTC)” value was 87 % UTC. In the case of “1074966 (antisense kA*kT*kT*dG*dA*dA*dG*dT*dG*dT*dT*dT*dA*kG*kG*k[5mC]) [compound 1074966]”, the “YAP1 (% UTC)” value is reported as 9 % UTC. “1075702 (kG*kA*kG*dG*dA*dA*dG*dG*dG*d[5mC]*dA*d[5mC]*d[5mC]*kT*kT*kT; antisense) [compound 1075702]” was tested, and the “YAP1 (% UTC)” value was 81 % UTC. For “1076150 (kA*kT*kT*dT*dA*dT*dT*dA*dA*d[5mC]*dT*d[5mC]*dA*k[5mC]*kG*kA; antisense) [compound 1076150]”, the “YAP1 (% UTC)” value was 11 % UTC. With “1076342 (antisense k[5mC]*kA*kT*dT*dA*dA*d[5mC]*dT*dA*d[5mC]*dA*dA*d[5mC]*kT*kG*kT) [compound 1076342]” the “YAP1 (% UTC)” value was 33 % UTC.

Same assay, conditions: Yap1 mRNA remaining as percent of untreated control; 3-10-3 cEt gapmers; A-431 cells; Table 37
For “1074359 (antisense kT*kT*k[5mC]*dG*dA*dG*dG*dG*dA*d[5mC]*dA*d[5mC]*dT*kG*kT*kA) [compound 1074359]”, the “YAP1 (% UTC)” value was 18 % UTC. “1075799 (k[5mC]*k[5mC]*kT*d[5mC]*dA*dA*d[5mC]*dA*d[5mC]*dA*dT*dT*dT*kG*kA*kG; antisense) [compound 1075799]” was tested, and the “YAP1 (% UTC)” value was 85 % UTC. “1074231 (antisense kA*kA*kA*dG*dA*dA*dG*dA*d[5mC]*dT*dG*dT*d[5mC]*kG*kA*kA) [compound 1074231]” was tested, and the “YAP1 (% UTC)” value was 8 % UTC. In the case of “1075351 (antisense kA*kG*kA*dT*dT*dA*dA*dA*dG*d[5mC]*dT*d[5mC]*dA*kT*kT*kG) [compound 1075351]”, the “YAP1 (% UTC)” value is reported as 38 % UTC. For “1076279 (k[5mC]*kA*kA*dT*dA*dA*dG*dG*dA*d[5mC]*dA*dG*dG*kA*k[5mC]*k[5mC]; antisense) [compound 1076279]”, the “YAP1 (% UTC)” value was 71 % UTC. In the case of “1074167 (antisense k[5mC]*kG*k[5mC]*dA*d[5mC]*d[5mC]*d[5mC]*d[5mC]*d[5mC]*dT*dG*dA*d[5mC]*k[5mC]*k[5mC]*kA) [compound 1074167]”, the “YAP1 (% UTC)” value is reported as 58 % UTC. In the case of “1075543 (kA*kT*kA*dT*dA*dT*dT*dA*dG*dG*dA*dG*dT*kT*kT*k[5mC]; antisense) [compound 1075543]”, the “YAP1 (% UTC)” value is reported as 22 % UTC.
